According to ChEMBL document CHEMBL1130105 (J Med Chem, 1997):

target: T1, Cholecystokinin receptor type A (Rattus norvegicus, UniProt P30551); assay: Inhibition of ligand binding to Cholecystokinin type A receptor from rat pancreatic tissue.
T1 sequence (P30551 whole entry): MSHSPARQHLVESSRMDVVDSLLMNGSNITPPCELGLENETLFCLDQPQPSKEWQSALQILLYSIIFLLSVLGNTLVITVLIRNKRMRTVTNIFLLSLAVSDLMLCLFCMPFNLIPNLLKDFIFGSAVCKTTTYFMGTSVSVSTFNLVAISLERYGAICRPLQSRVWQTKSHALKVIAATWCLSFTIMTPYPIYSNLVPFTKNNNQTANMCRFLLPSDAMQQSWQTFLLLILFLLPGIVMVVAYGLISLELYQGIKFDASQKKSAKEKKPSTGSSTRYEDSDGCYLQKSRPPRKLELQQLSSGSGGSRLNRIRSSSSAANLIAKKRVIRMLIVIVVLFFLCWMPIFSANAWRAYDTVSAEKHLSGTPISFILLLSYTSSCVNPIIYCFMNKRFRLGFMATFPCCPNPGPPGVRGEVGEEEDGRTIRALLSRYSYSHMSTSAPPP

SMILES | IC50 [µM]
CCCN1C(=O)[C@H](NC(=O)Nc2cccc(C)c2)N=C([C@H]2CCCCN2C)c2ccccc21 | 2.09
CCCN1C(=O)[C@H](NC(=O)Nc2ccc3c(c2)CCC3)N=C([C@H]2CC(C)(C)CCN2)c2ccccc21 | 4.02
CCCN1C(=O)[C@H](NC(=O)Nc2cccc(C)c2)N=C([C@H]2CCC(C)(C)CCN2)c2ccccc21 | 1.51
CCN(CC)C(=O)CN1C(=O)[C@H](NC(=O)Nc2cccc(C)c2)N=C(c2cccc[n+]2C)c2ccccc21 | 1.75

Other lines, results leading:

IC50 [µM] | SMILES
6.49 | CN1C(=O)[C@H](NC(=O)Nc2ccc3c(c2)CCC3)N=C([C@H]2CCC(C)(C)CCN2)c2ccccc21
3.09 | CCCN1C(=O)[C@H](NC(=O)Nc2cccc(C)c2)N=C([C@H]2CC(C)(C)CCN2)c2ccccc21
3 | CCCN1C(=O)[C@H](NC(=O)Nc2cccc(C)c2)N=C([C@H]2CCCCN2)c2ccccc21
1.39 | Cc1cccc(NC(=O)N[C@@H]2N=C([C@H]3CCC(C)(C)CCN3)c3ccccc3N(C)C2=O)c1
3 | CCCN1C(=O)[C@H](NC(=O)Nc2cccc(C)c2)N=C([C@@H]2CCCCN2)c2ccccc21
3.54 | CCCN1C(=O)[C@H](NC(=O)Nc2cccc(C)c2)N=C([C@H]2CCC(C)(C)CCN2C)c2ccccc21

target: Gastrin/cholecystokinin type B receptor (Cavia porcellus); assay: Inhibition of ligand binding to Cholecystokinin type B receptor from guinea pig cortical membrane.

SMILES | IC50 [µM]
CCN(CC)C(=O)CN1C(=O)C(NC(=O)Nc2cccc(C)c2)N=C(c2ccccn2)c2ccccc21 (configuration not stated) | 0.00056
Cc1cccc(NC(=O)NC2N=C(c3ccccn3)c3ccccc3N(C)C2=O)c1 (configuration not stated) | 0.066
